Data as given in patent US20260151363A1, “MELANOGENESIS INHIBITION COMPOSITIONS AND METHODS OF USE THEREOF” (MDI BIOLOGICAL LABORATORY, priority 2023, published 2026).
Where two headings read alike, the source gives them in different places.

What was measured:
melanin production = test: Melanin production and toxicity, ML233 analogs in parallel with ML233 (serial dilution); settings: for toxicity: 25 μM
Description: The ML233 analogs were tested in parallel with serial dilution in DMSO: at 25 μM, 12.5 μM, […], 3.12 5 μM, 1.5625 μM and […].

zebrafish embryos [1] = test: Pigmentation of zebrafish embryos (micrographs); format: in vivo
Description: Zebrafish embryos were allowed to develop in the presence of ML233 and the effects of ML233 on pigmentation was analyzed. ML233 was dissolved in carrier Dimethylsulfoxide (DMSO). Embryos were exposed to ML233 beginning at four hours post-fertilization and ending at 48 hours post-fertilization. Dimethylsulfoxide (DMSO) was used as a negative control. ML233 dosages tested were 2.5 micromolar, five micromolar, and 10 micromolar (FIG. 1A).
The effect of ML233 on pigmentation was analyzed in zebrafish embryos at 38 hours post-fertilization when larvae were highly pigmented. Embryos were treated with ML233 at the following concentrations: 5 micromolar, 10 micromolar, and 15 micromolar. The carrier, DMSO, was used as a negative control. Pigmentation was analyzed six hours (FIG. 2A) and 24 hours after ML233 addition (FIG. 2B).

zebrafish embryos [2] = test: Percent melanin quantity in zebrafish embryos; format: in vivo
Description: The effect of ML233 on percent melanin quantity was assayed in zebrafish embryos beginning at 4 hours post-fertilization and ending at 48 hours. Developing embryos were treated with ML233 in DMSO carrier at varying dosages, or DMSO as a negative control or with phenylthiourea (PTU) as a positive control.

tyrosinase [3] = test: Tyrosinase activity in treated zebrafish embryos (absorbance of L-DOPA); format: in vivo
Description: To determine the effect of ML233 on tyrosinase activity, zebrafish embryos were treated with ML233 at the following concentrations: 0.5 micromolar, 1.25 micromolar, 2.5 micromolar, five micromolar, 10 micromolar, and 15 micromolar ML233 (FIG. 3A). DMSO was used as a carrier and the tyrosinase inhibitor PTU was used as a positive control.

tyrosinase [4] = test: In vitro tyrosinase activity (FIG. 3B); format: biochemical; settings: compared to DMSO
Excerpt: The effect of ML233 on tyrosinase activity was also explored in in vitro experiments.

mushroom TYR = test: Mushroom TYR conversion of L-DOPA to melanin in vitro (FIG. 3C); format: biochemical; settings: 20 μM; compared to DMSO
Description: To determine whether ML233, a small inhibitor of melanogenesis, acts directly on tyrosinase (TYR) activity in vitro, the activity of mushroom TYR was assessed via measurement of its capacity to convert L-DOPA to melanin in vitro using Kojic Acid at 100 μM as a positive control.

zebrafish embryos [5] = test: Zebrafish embryo viability / toxicity; format: in vivo; settings: 2.5, five
Excerpt: Studies were undertaken to evaluate the effect of ML233 on embryo viability. […] The number of viable and dead embryos at 1 day post fertilization (dpf), 2 dpf, 3 dpf and 4 dpf and at various doses of ML233 was compared to embryo viability in negative controls, which included embryos treated with the carrier DMSO or untreated embryos. (FIG. 4A).

[6] = tested on: B16F10 murine melanoma cell line; test: B16F10 melanoma cell proliferation / viability; format: cell-based; settings: Mus musculus, B16-F10
Description: ML233 reduced pigmentation in a mammalian melanoma cell line. In vivo, in vitro, and computational studies described here supported the hypothesis that ML233 was a direct inhibitor of TYR protein expression and function. The effects of ML233 and cisplatin on the proliferation of B16F-10 murine melanoma cells in vitro was analyzed. To determine the effects of conservation in higher vertebrate species, ML233 activity in the B16F10 murine melanoma cell line was tested. B16F10-cell proliferation was analyzed after ML233 treatment to determine IC50. A 50% reduction in cell viability at concentrations of ML233 between 5 and 10 μM was observed (FIG. 5A). Cells were treated with various concentration of ML233 or cisplatin and the cell viability of control percent versus the concentration of ML233 or cisplatin (in μM) was analyzed (FIGS. 5A and 5B).

[7] = tested on: B16F10 murine melanoma cells; test: Melanin production in B16F10 cells (OD 410, IBMX-stimulated); format: cell-based
Description: To determine if ML233 could inhibit pigmentation of […] cells at low ML233 concentrations (without effects on cell proliferation), melanin production was analyzed in B16F10 cells after 24 hours of treatment with 0.625 μM, 1.25 μM, 2.5 μM, or 5 μM of ML233. Observation of cell pellets after centrifugation confirmed that ML233 function to inhibit melanin production was conserved in mammals (data not shown). The effect of ML233 and 3-isobutyl-1-methylxanthine (IBMX) on melanin production was analyzed in B16F10 murine melanoma cells. IBMX is a non-selective phosphodiesterase inhibitor, which induced melanin production in B16F10 murine melanoma cells. Melanin production was measured in cells treated with IBMX alone (100 micromolar), and IBMX in conjunction with: 0.625 micromolar ML233, 1.25 micromolar ML233, 2.5 micromolar ML233, and five micromolar ML233, as well as in negative control cells treated with DMSO vehicle alone. Melanin production in treated cells was measured using optical density (FIG. 6A) at a wavelength of 410 nm (OD value 410). Ratios with the total quantity of protein (OD value 562) were calculated (FIG. 6B). […] P-values are indicated in the bar charts.

tyrosinase [8] = test: Tyrosinase expression by Western blot and densitometry (FIG. 9); settings: 15 μM
Description: An analysis of tyrosinase expression after ML233 treatment was performed. […] Quantitative analysis was also performed using densitometry of tyrosinase expression after ML233 treatment at 15 μM of the Western blot data (FIG. 9B). DMSO was a negative control, while phenylthiourea (PTU), which is a potent inhibitor of human tyrosinase), was used as a positive control. CRISPR was used as a specificity control of the antibody used in the analysis, where CRISPR was directed against the tyrosinase gene.

[9] = tested on: tyr, dct, and mitfa mRNA expression; test: RT-qPCR of tyr, dct and mitfa mRNA in zebrafish embryos; format: in vivo
Description: (§1) Example 10: Tyrosinase gene expression was not abolished by ML233 treatmentTo better understand the molecular action of ML233 on skin pigmentation and melanogenesis, the expression of genes involved in melanogenesis, including tyrosinase (tyr), dopachrome tautomerase (dct), and microphthalmia-associated transcription factor (mitfa), the latter which is known to control melanocyte formation and TYR expression, was analyzed.

mitfa and tyr genes = test: In situ hybridization of mitfa and tyr in zebrafish embryos; format: in vivo; settings: for tyr mRNA detection (in situ hybridization): embryos at 48 hpf, treated between 24 and 48 hpf
Description: as §1

zebrafish embryos [10] = test: Bulk RNAseq and GSEA in WT and aplnr KO zebrafish embryos; format: in vivo; settings: 0.5 μM
Excerpt: Because ML233 is an agonist of the apelin receptors, ML233 driven differential expression in an apelin dependent and independent manner was investigated. […] A clear separation in gene expression between the WT and KO backgrounds was observed (FIG. 10C).

B16F10 (murine melanoma) = test: Tyrosinase protein expression (Western blot) and pigmentation in B16F10 cells; format: cell-based; settings: 5 μM
Description: To study these two possibilities, an antibody raised against the human tyrosinase protein was used. The capacity of the antibody to recognize TYR in two different mammalian cell lines (FIG. 11A): B16F10 (murine melanoma) and A375 (human melanoma) was tested. Using the validated antibody, the level of tyrosinase protein expression by Western blot in control DMSO and 5 μM ML233 treated cells (FIG. 11B) was analyzed.

[11] = tested on: ME1154B human melanoma line; test: cells; format: cell-based; settings: ME1154B 3D organoids, read-out: IC50 viability/proliferation
Description: (§2) Because ML233 affected B16F10 murine melanoma-cell proliferation, the proliferative potential of human metastatic melanoma was determined. Patient-derived xenograft organoids (PDXOs), which were 3D in vitro models generated from patient tumors, were used. The effect of ML233 treatment (between 0.001 μM and 10 μM) in two different human melanoma cell lines collected from metastasis, ME1154B and ME2319B (Crown Bioscience). These two melanoma lines differed in their sensitivity to both ML233 and the control molecule, staurosporine (STS), in 3D organoids (FIGS. 12A-12B).

[12] = tested on: ME2319B human melanoma line; test: PDXO viability/proliferation, ME2319B; format: cell-based; settings: ME2319B 3D organoids
Description: as §2

[13] = serial dilution 25 μM to 0.78125

## CC1=C/C(=N/OS(=O)(=O)c2ccccc2)C(C(C)C)=CC1=O [(i), [(Z)-(5-methyl-4-oxo-2-propan-2-ylcyclohexa-2,5-dien-1-ylidene)amino]benzenesulfonate]
Melanin production
  toxicity: higher toxicity
Melanin production; [13]
  inhibition of melanin production: Inhibition of melanin production was also observed

## CC1=CC(=O)C(C(C)C)=C/C1=N\OS(=O)(=O)c1ccccc1 [(iii), [(E)-(2-methyl-4-oxo-5-propan-2-ylcyclohexa-2,5-dien-1-ylidene)amino]benzenesulfonate]
Melanin production
  toxicity: higher toxicity
Melanin production; [13]
  inhibition of melanin production: Inhibition of melanin production was also observed

## CC1=CC(=O)C(C2CCCCC2)=C/C1=N\OS(=O)(=O)c1ccccc1 [ML233, (E)-2-cyclohexyl-5-methyl-4-(phenylsulfonyloxyimino)cyclohexa-2,5-dienone]
Zebrafish embryos [1]; 2.5, five and 10 micromolar, exposure 4 to 48 hours post-fertilization, vs DMSO
  pigmentation of embryos: visible decrease in pigmentation
Zebrafish embryos [1]; treated at 38 hours post-fertilization, 5, 10, 15 micromolar, six hours and 24 hours after addition
  pigmentation of embryos: reduced pigmentation at all dosages
Zebrafish embryos [2]; 0.5 to 15 micromolar, 4 to 48 hours post-fertilization
  melanin production (percent melanin quantity): significantly inhibited melanin production at all levels tested
Zebrafish embryos [2]; 5 micromolar and above
  melanin quantity compared with PTU: comparable to treatment with PTU
Tyrosinase [3]; 10 micromolar and 15 micromolar ML233 groups
  percent of tyrosinase activity compared with PTU: comparable to PTU
Tyrosinase [3]; concentration as low as 0.5 micromolar
  tyrosinase activity: significantly reduced
Tyrosinase [4]; 20 micromolar
  reduction of tyrosinase activity: greater than 40%
Tyrosinase [4]; 30 micromolar
  reduction of tyrosinase activity: 50%
Mushroom TYR
  reduction of melanogenesis (L-DOPA to melanin): ~40%
Zebrafish embryos [5]; 10 and 20 micromolar
  percent viability at day four post fertilization: No deleterious effects on zebrafish viability
Zebrafish embryos [5]; 10 and 20 micromolar from 4 hours post-fertilization
  toxicity (viable and dead embryos at 1 to 4 dpf): low toxicity at effective concentrations
[6]; B16F10, read-out: concentration giving 50% reduction in cell viability
  IC50: 5 to 10 µM
[6]; B16F10 proliferation, read-out: in vitro IC50
  IC50: 10 µM
[7]; IBMX 100 micromolar plus 0.625, 1.25, 2.5 or five micromolar ML233
  melanogenesis (melanin OD 410; ratio to protein OD 562): reduced melanogenesis in mammalian melanoma cells at all dosages
[7]; between 0.625 and 5 μM
  B16F10 cells survival: without affecting B16F10 cells survival
[7]; concentrations as low as 0.625 μM
  melanoma-cell pigmentation (absorbance quantification of melanin): significantly reduced
Melanin production; 3.125 μM and lower concentrations
  inhibition of melanin production: very efficient at inhibiting melanin production
Tyrosinase [8]
  tyrosinase expression (Western blot): tyrosinase expression was inhibited
[9]; 5 μM and greater
  tyr expression by RT-qPCR: Significantly decreased
[9]; 20 μM, compared to DMSO-treated embryos
  maximum reduction of tyr expression: ~40%
[9]; any concentration
  mitfa expression by RT-qPCR: not significantly dysregulated
[9]; embryos at 2 dpf after 1 day of treatment
  tyr, dct, and mitfa mRNA expression by RT-qPCR: mild reduction of gene expression
Mitfa and tyr genes; 2 dpf after 1 day of 15 μM
  mitfa and tyr gene expression in melanocytes (in situ hybridization): still expressed in melanocytes
Mitfa and tyr genes
  tyr mRNA detection (in situ hybridization): highly detectable
Zebrafish embryos [10]
  impact on biological processes (GSEA): did not significantly impact biological processes
B16F10 (murine melanoma)
  pigmentation of cells: strong reduction in the pigmentation
B16F10 (murine melanoma); vs DMSO
  TYR protein expression normalized with Beta-actin: no significant reduction of TYR protein expression
[11]
  IC50: 1.65 µM
[12]; between 0.001 μM and 10 μM
  viability: did not affect ME2319B viability at any concentration tested

## NC(=S)Nc1ccccc1 [PTU, phenylthiourea, reference compound]
Mitfa and tyr genes
  tyr mRNA detection (in situ hybridization): highly detectable

## CN[C@@H]1C[C@H]2O[C@@](C)([C@@H]1OC)n1c3ccccc3c3c4c(c5c6ccccc6n2c5c31)C(=O)NC4 [STS, staurosporine, reference compound]
[12]; Homo sapiens
  IC50: 0.0025 µM

## [(E)-(5-methyl-4-oxo-2-propan-2-ylcyclohexa-2,5-dien-1-ylidene)amino]4-methylbenzenesulfonate [(ii)]
Melanin production; [13]
  inhibition of melanin production: Inhibition of melanin production was also observed
